From publication PMC10167756 (Journal of medicinal chemistry, 2023)
Structures can show the parent of a compound that is named as a salt.

Molecular target: T1, Spns2 (Spinster homolog 2) (Mus musculus, UniProt Q91VM4)
T1 sequence (Q91VM4 1-549): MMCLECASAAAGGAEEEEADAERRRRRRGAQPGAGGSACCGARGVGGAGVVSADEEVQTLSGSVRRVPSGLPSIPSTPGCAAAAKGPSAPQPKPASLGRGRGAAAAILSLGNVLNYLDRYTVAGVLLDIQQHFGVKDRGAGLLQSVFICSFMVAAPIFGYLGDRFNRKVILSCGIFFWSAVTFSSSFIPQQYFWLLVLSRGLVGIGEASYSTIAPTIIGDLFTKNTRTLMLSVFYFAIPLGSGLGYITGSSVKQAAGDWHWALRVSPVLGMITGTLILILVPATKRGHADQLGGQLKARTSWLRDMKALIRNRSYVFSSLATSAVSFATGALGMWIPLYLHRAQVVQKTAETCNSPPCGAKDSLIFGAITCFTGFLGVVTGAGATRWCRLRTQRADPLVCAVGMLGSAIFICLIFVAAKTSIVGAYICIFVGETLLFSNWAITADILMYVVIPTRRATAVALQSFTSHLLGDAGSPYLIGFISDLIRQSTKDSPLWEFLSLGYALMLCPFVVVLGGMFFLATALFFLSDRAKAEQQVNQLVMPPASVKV
Test: S1P release assay in mouse Spns2-transfected HeLa cells, % inhibition at […]
Type: cell-based

## CCCCCCCCCc1ccc2oc(NC[C@H]3CCNC3)nc2c1 [35p, (S)-5-nonyl-N-(pyrrolidin-3-ylmethyl)benzo[d]oxazol-2-amine hydrochloride]
  inhibition at 0.3 µM: 50 ± 4%
